Data: ChEMBL document CHEMBL4699401, “Argininamide-type neuropeptide Y Y1 receptor antagonists: the nature of Nomega-carbamoyl substituents determines Y1R binding mode and affinity” (RSC Med Chem, 2020)

Columns and labels:
[1] = biological target: T1, Neuropeptide Y receptor type 1 (Homo sapiens, UniProt P25929); assay: Displacement of [3H]UR-MK299 from Y1 receptor in human SK-N-MC cells by radioligand binding assay; assay type: cell-based
T1 sequence (P25929 whole entry): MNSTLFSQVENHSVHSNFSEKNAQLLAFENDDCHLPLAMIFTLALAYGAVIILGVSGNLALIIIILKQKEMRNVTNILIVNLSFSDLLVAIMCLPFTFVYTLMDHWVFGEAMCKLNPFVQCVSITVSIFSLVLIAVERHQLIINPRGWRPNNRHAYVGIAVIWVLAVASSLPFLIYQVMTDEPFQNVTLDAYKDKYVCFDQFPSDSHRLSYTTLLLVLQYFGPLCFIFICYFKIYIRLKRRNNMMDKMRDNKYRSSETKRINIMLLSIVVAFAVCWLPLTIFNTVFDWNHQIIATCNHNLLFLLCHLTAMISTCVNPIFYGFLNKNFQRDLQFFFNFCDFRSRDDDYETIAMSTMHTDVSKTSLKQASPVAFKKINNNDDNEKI

[2] = biological target: T1, Neuropeptide Y receptor type 1; assay: Antagonist activity at Y1 receptor in human HEL cells assessed as reduction in pNPY-induced calcium mobilization preincubated for 15 mins followed by pNPY stimulation and measured immediately by Fura-2 dye based fluorescence assay; assay type: functional, cell-based
[3] = biological target: T2, Neuropeptide Y receptor type 1 (Homo sapiens) (UniProt P25929); details: HEL, filed as antagonist, time 15.0 min
T2 sequence (whole entry): T1 sequence (P25929 whole entry)

With `C=CC(=O)NCCNC(=O)/N=C(/N)NCCC[C@@H](NC(=O)C(c1ccccc1)c1ccccc1)C(=O)NCc1ccc(O)cc1` the Ki [1] was 0.112 nM, the IC50 [2] was 0.186 nM and the pKb [3] was 10.6.
For `CC(C)C(=O)NCCNC(=O)/N=C(/N)NCCC[C@@H](NC(=O)C(c1ccccc1)c1ccccc1)C(=O)NCc1ccc(O)cc1`, the Ki [1] was 0.309 nM, the IC50 [2] was 0.0661 nM and the pKb [3] was 11.1.
Molecule `N/C(=N/C(=O)NCCNC(=O)C(c1ccccc1)c1ccccc1)NCCC[C@@H](NC(=O)C(c1ccccc1)c1ccccc1)C(=O)NCc1ccc(O)cc1` has a Ki [1] of 295 nM, an IC50 [2] of 525 nM and a pKb [3] of 7.16.
`N/C(=N/C(=O)NCCNC(=O)CF)NCCC[C@@H](NC(=O)C(c1ccccc1)c1ccccc1)C(=O)NCc1ccc(O)cc1` was tested, and the Ki [1] was 0.0316 nM and the IC50 [2] was 0.055 nM.
Work on `N/C(=N/C(=O)NCCNC(=O)Cc1ccccc1)NCCC[C@@H](NC(=O)C(c1ccccc1)c1ccccc1)C(=O)NCc1ccc(O)cc1` yielded a Ki [1] of 302 nM, an IC50 [2] of 95.5 nM and a pKb [3] of 7.9.
`CCC(=O)NCCCNC(=O)/N=C(/N)NCCC[C@@H](NC(=O)C(c1ccccc1)c1ccccc1)C(=O)NCc1ccc(O)cc1` showed a Ki [1] of 0.0741 nM.
In the case of `N/C(=N/C(=O)NCCNC(=O)c1ccccc1)NCCC[C@@H](NC(=O)C(c1ccccc1)c1ccccc1)C(=O)NCc1ccc(O)cc1`, the Ki [1] is reported as 56.2 nM, the IC50 [2] is reported as 11.5 nM and the pKb [3] is reported as 8.82.
Molecule `CC(=O)NCCCNC(=O)/N=C(/N)NCCC[C@@H](NC(=O)C(c1ccccc1)c1ccccc1)C(=O)NCc1ccc(O)cc1` has a Ki [1] of 0.0631 nM.
`CC(=O)NCCNC(=O)/N=C(/N)NCCC[C@@H](NC(=O)C(c1ccccc1)c1ccccc1)C(=O)NCc1ccc(O)cc1` showed a Ki [1] of 0.0589 nM.
`N/C(=N/C(=O)NCCNC(=O)c1ccc(F)cc1)NCCC[C@@H](NC(=O)C(c1ccccc1)c1ccccc1)C(=O)NCc1ccc(O)cc1` was tested, and the Ki [1] was 295 nM, the IC50 [2] was 16.2 nM and the pKb [3] was 8.67.
`N/C(=N/C(=O)NCCNC(=O)C(F)(F)F)NCCC[C@@H](NC(=O)C(c1ccccc1)c1ccccc1)C(=O)NCc1ccc(O)cc1` showed a Ki [1] of 0.0708 nM and an IC50 [2] of 0.126 nM.
Work on `N/C(=N/C(=O)NCCNC(=O)CO)NCCC[C@@H](NC(=O)C(c1ccccc1)c1ccccc1)C(=O)NCc1ccc(O)cc1` yielded a Ki [1] of 0.145 nM, an IC50 [2] of 0.0912 nM and a pKb [3] of 10.9.
`N/C(=N/C(=O)NCCNC(=O)C1CC1)NCCC[C@@H](NC(=O)C(c1ccccc1)c1ccccc1)C(=O)NCc1ccc(O)cc1` gave a Ki [1] of 1.17 nM, an IC50 [2] of 0.24 nM and a pKb [3] of 10.5.
`N/C(=N/C(=O)NCCNC(=O)CCl)NCCC[C@@H](NC(=O)C(c1ccccc1)c1ccccc1)C(=O)NCc1ccc(O)cc1` was tested, and the Ki [1] was 0.0525 nM and the IC50 [2] was 0.0794 nM.
`N/C(=N/C(=O)NCCNC(=O)C1CCC1)NCCC[C@@H](NC(=O)C(c1ccccc1)c1ccccc1)C(=O)NCc1ccc(O)cc1` gave a Ki [1] of 1.1 nM, an IC50 [2] of 0.24 nM and a pKb [3] of 10.5.
For `N/C(=N/C(=O)NCCNC(=O)CCCl)NCCC[C@@H](NC(=O)C(c1ccccc1)c1ccccc1)C(=O)NCc1ccc(O)cc1`, the Ki [1] was 0.38 nM and the IC50 [2] was 0.589 nM.
`N/C(=N/C(=O)NCCNC(=O)CBr)NCCC[C@@H](NC(=O)C(c1ccccc1)c1ccccc1)C(=O)NCc1ccc(O)cc1` gave a Ki [1] of 0.126 nM, an IC50 [2] of 0.0617 nM and a pKb [3] of 11.1.
`N/C(=N/C(=O)NCCNC(=O)C1CCCCC1)NCCC[C@@H](NC(=O)C(c1ccccc1)c1ccccc1)C(=O)NCc1ccc(O)cc1` showed a Ki [1] of 380 nM, an IC50 [2] of 30.9 nM and a pKb [3] of 8.39.
With `N/C(=N/C(=O)NCCNC(=O)C(F)F)NCCC[C@@H](NC(=O)C(c1ccccc1)c1ccccc1)C(=O)NCc1ccc(O)cc1` the Ki [1] was 0.0676 nM and the IC50 [2] was 0.11 nM.
`N/C(=N/C(=O)NCCNC(=O)C1CCCC1)NCCC[C@@H](NC(=O)C(c1ccccc1)c1ccccc1)C(=O)NCc1ccc(O)cc1` was tested, and the Ki [1] was 52.5 nM, the IC50 [2] was 7.59 nM and the pKb [3] was 9.
`Cc1cc(/C=C/C=C/c2ccc(N(C)C)cc2)cc(C)[n+]1CCNC(=O)/N=C(/N)NCCC[C@@H](NC(=O)C(c1ccccc1)c1ccccc1)C(=O)NCc1ccc(O)cc1` was tested, and the Ki [1] was 102 nM.
In the case of `CC(C)(C)C(=O)NCCNC(=O)/N=C(/N)NCCC[C@@H](NC(=O)C(c1ccccc1)c1ccccc1)C(=O)NCc1ccc(O)cc1`, the Ki [1] is reported as 45.7 nM, the IC50 [2] is reported as 14.5 nM and the pKb [3] is reported as 8.71.
